Measurements: patent US7807678B2, “Peptidomimetics of biologically active metallopeptides” (Palatin Technologies, Inc., priority 2001, dated 2010)

Key:
[1] = biological target: T1, MC1-R (B-16 mouse melanoma cells) (Mus musculus, UniProt Q01727); experiment: Competitive inhibition binding assay, 125I-NDP-α-MSH, MC1-R; settings: for Inhibition at 1 μM MC1-R: 1 μM compound, inhibition of 125I-NDP-α-MSH binding, mean of triplicates, results less than 0% reported as 0%
T1 construct: B-16 mouse melanoma cells (containing MC1-R); endogenous in cells; host or cells: B-16 mouse melanoma cells
In short: (§1)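 Membranes from hMC3-R, hMC4-R or hMC5-R cells, or B-16 mouse melanoma cells (MC1-R), were incubated 90 min at room temperature with 0.4 nM 125I-NDP-α-MSH in HEPES pH 7.2 with Mg2+/Ca2+/K+, and test compound generally at 1 μM. Filter-bound radioactivity was gamma counted. Specific binding was defined with 1 μM α-MSH; triplicate means.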

[2] = biological target: MC3-R (Homo sapiens, UniProt P41968); experiment: Competitive inhibition binding assay, 125I-NDP-α-MSH, MC3-R; set-up: expressed in transfected cells; settings: for Inhibition at 1 μM MC3-R: 1 μM compound, inhibition of 125I-NDP-α-MSH binding, mean of triplicates, results less than 0% reported as 0%
In short: as §1

[3] = biological target: MC4-R (Homo sapiens, UniProt P32245); experiment: Competitive inhibition binding assay, 125I-NDP-α-MSH, MC4-R; set-up: expressed in transfected cells; settings: for Inhibition at 1 μM MC4-R: 1 μM compound, inhibition of 125I-NDP-α-MSH binding, mean of triplicates, results less than 0% reported as 0%
In short: as §1

[4] = biological target: MC5-R (Homo sapiens, UniProt P33032); experiment: Competitive inhibition binding assay, 125I-NDP-α-MSH, MC5-R; set-up: expressed in transfected cells; settings: for Inhibition at 1 μM MC5-R: 1 μM compound, inhibition of 125I-NDP-α-MSH binding, mean of triplicates, results less than 0% reported as 0%
In short: as §1

MC3-R, sequence (P41968 whole entry): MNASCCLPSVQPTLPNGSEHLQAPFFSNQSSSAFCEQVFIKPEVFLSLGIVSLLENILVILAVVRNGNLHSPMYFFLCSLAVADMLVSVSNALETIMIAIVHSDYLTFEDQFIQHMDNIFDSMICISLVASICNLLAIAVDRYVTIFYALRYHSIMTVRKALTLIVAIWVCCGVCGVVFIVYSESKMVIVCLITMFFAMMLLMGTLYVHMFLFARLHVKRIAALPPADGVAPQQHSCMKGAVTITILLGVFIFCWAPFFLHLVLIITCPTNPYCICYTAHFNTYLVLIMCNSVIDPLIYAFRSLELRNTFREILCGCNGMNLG
MC5-R, sequence (P33032 whole entry): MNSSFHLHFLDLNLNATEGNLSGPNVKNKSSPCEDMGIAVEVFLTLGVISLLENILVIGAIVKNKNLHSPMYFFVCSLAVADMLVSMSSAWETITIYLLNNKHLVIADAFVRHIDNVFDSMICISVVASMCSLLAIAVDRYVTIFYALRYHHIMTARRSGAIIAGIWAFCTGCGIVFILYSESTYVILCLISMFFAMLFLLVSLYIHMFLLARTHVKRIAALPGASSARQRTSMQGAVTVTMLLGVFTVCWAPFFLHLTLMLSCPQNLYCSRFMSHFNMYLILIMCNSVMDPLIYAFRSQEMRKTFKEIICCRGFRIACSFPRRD
MC4-R, sequence (P32245 whole entry): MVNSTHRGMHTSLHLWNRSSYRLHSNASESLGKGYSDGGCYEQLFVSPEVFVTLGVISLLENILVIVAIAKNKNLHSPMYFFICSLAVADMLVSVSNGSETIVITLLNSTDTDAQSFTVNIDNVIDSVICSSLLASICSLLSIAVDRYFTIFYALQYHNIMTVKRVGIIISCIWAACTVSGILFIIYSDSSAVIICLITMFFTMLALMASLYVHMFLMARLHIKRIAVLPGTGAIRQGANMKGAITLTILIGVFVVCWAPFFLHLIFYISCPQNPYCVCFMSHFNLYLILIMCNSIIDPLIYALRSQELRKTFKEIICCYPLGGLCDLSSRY
T1 sequence (Q01727 whole entry): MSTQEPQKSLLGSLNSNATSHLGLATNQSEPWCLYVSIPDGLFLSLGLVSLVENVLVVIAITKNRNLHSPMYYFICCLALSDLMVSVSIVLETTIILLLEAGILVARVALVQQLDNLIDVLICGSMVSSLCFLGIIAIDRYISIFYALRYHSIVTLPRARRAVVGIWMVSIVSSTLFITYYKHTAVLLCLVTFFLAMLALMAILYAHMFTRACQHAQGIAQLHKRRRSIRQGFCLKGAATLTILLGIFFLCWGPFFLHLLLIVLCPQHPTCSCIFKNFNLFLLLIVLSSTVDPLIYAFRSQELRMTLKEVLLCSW

Inhibition at 1 μM MC1-R [1]	Inhibition at 1 μM MC3-R [2]	Inhibition at 1 μM MC4-R [3]	Inhibition at 1 μM MC5-R [4]	inhibition at 1 µM [1]	inhibition at 1 µM [2]	inhibition at 1 µM [3]	inhibition at 1 µM [4]	SMILES
39%	0%	0%	0%					CCCCCCC(=O)N[C@@H](COCc1ccccc1)C(=O)N[C@H](Cc1ccc2ccccc2c1)C(=O)N1C[C@@H](Oc2ccc3ccccc3c2)C[C@H]1C(=O)NCCCN [Example 138]
85%	46%	43%	34%					CC(=O)NC(Cc1cnc[nH]1)C(=O)NC(Cc1ccccc1)C(=O)N1CC(OCc2ccccc2)CC1C(=O)NCCCN (centres unmarked) [Example 139]
78%	3%	1%	10%					NCCCNC(=O)[C@@H]1C[C@@H](OCc2ccccc2)CN1C(=O)[C@@H](Cc1ccccc1)NC(=O)[C@H](Cc1cnc[nH]1)NC(=O)c1ccccc1 [Example 140]
84%	4%	0%	19%					NCCCNC(=O)[C@@H]1C[C@@H](OCc2ccccc2)CN1C(=O)[C@@H](Cc1ccccc1)NC(=O)[C@H](Cc1cnc[nH]1)NC(=O)Cc1ccc2ccccc2c1 [Example 141]
85%	3%	0%	12%					NCCCNC(=O)[C@@H]1C[C@@H](OCc2ccccc2)CN1C(=O)[C@@H](Cc1ccccc1)NC(=O)[C@H](Cc1cnc[nH]1)NC(=O)CC1CCCCC1 [Example 142]
73%	0%	0%	7%					CCCC(CCC)C(=O)N[C@@H](Cc1cnc[nH]1)C(=O)N[C@H](Cc1ccccc1)C(=O)N1C[C@H](OCc2ccccc2)C[C@H]1C(=O)NCCCN [Example 143]
92%	7%	1%	1%					CCCCCCC(=O)N[C@@H](Cc1cnc[nH]1)C(=O)N[C@H](Cc1ccccc1)C(=O)N1C[C@H](OCc2ccccc2)C[C@H]1C(=O)NCCCNC(=N)N [Example 154]
71%	5%	0%	7%					CCCCCCC(=O)N[C@@H](Cc1cnc[nH]1)C(=O)N[C@H](Cc1ccccc1)C(=O)N1C[C@H](OCc2ccccc2)C[C@H]1C(=O)NCCCN [Example 155]
0%	5%	0%	0%					NCCCNC(=O)[C@@H]1C[C@@H](OCc2ccccc2)CN1C(=O)[C@@H](Cc1ccccc1)NC(=O)[C@H](N)Cc1ccc2ccccc2c1 [Example 158]
0%	14%	1%	0%					NCCCNC(=O)C1CC(OCc2ccccc2)CN1C(=O)C(Cc1ccccc1)NC(=O)C1NCCc2ccccc21 (centres unmarked) [Example 159]
1%	36%	5%	0%					NCCCNC(=O)C1CC(OCc2ccccc2)CN1C(=O)C(Cc1ccccc1)NC(=O)C1NCCc2ccccc21 (centres unmarked) [Example 160]
3%	23%	10%	0%					NCCCNC(=O)[C@@H]1C[C@@H](OCc2ccccc2)CN1C(=O)[C@@H](Cc1ccccc1)NC(=O)C1(N)CCCC1 [Example 161]
0%	41%	8%	0%					NCCCNC(=O)[C@@H]1C[C@@H](OCc2ccccc2)CN1C(=O)[C@@H](Cc1ccccc1)NC(=O)C1(N)CCCCC1 [Example 162]
0%	16%	15%	0%					NCCCNC(=O)[C@@H]1C[C@@H](OCc2ccccc2)CN1C(=O)[C@@H](Cc1ccccc1)NC(=O)C1(N)Cc2ccccc2C1 [Example 163]
0%	0%	13%	1%					NCCCNC(=O)[C@@H]1C[C@@H](OCc2ccccc2)CN1C(=O)[C@@H](Cc1ccccc1)NC(=O)[C@@H](N)Cc1ccc2ccccc2c1 [Example 164]
0%	2%	16%	0%					NCCCNC(=O)[C@@H]1C[C@@H](OCc2ccccc2)CN1C(=O)[C@@H](Cc1ccccc1)NC(=O)[C@@H](N)Cc1cccc2ccccc12 [Example 165]
0%	13%	8%	0%					NCCCNC(=O)[C@@H]1C[C@@H](OCc2ccccc2)CN1C(=O)[C@@H](Cc1ccccc1)NC(=O)[C@H](N)Cc1cccc2ccccc12 [Example 166]
22%	0%	8%	5%					[2H]N1CCCC1C(=O)NC(Cc1ccccc1)C(=O)N1CC(OCc2ccccc2)CC1C(=O)NCCCN (centres unmarked) [Example 167]
18%	0%	10%	0%					NCCCNC(=O)[C@@H]1C[C@@H](OCc2ccccc2)CN1C(=O)[C@@H](Cc1ccccc1)NC(=O)C1CCC(CN)CC1 (some centres unmarked) [Example 168]
12%	0%	6%	0%					NCCCNC(=O)[C@@H]1C[C@@H](OCc2ccccc2)CN1C(=O)[C@@H](Cc1ccccc1)NC(=O)c1ccc(CN)cc1 [Example 169]
11%	0%	9%	25%					NCCCNC(=O)[C@@H]1C[C@@H](OCc2ccccc2)CN1C(=O)[C@@H](Cc1ccccc1)NC(=O)[C@@H](N)Cc1ccc(-c2ccccc2)cc1 [Example 171]
14%	0%	4%	0%					NCCCNC(=O)[C@@H]1C[C@@H](OCc2ccccc2)CN1C(=O)[C@@H](Cc1ccccc1)NC(=O)[C@@H]1Cc2ccccc2N1 [Example 172]
7%	13%	7%	0%					NCCCNC(=O)[C@@H]1C[C@@H](OCc2ccccc2)CN1C(=O)[C@@H](Cc1ccccc1)NC(=O)[C@H](N)C(c1ccccc1)c1ccccc1 [Example 173]
10%	21%	15%	2%					NCCCNC(=O)[C@@H]1C[C@@H](OCc2ccccc2)CN1C(=O)[C@@H](Cc1ccccc1)NC(=O)[C@@H](N)C1Cc2ccccc2C1 [Example 174]
3%	0%	19%	0%					NCCCNC(=O)[C@@H]1C[C@@H](OCc2ccccc2)CN1C(=O)[C@@H](Cc1ccccc1)NC(=O)[C@H](N)C1Cc2ccccc2C1 [Example 175]
18%	0%	8%	8%					CC(O)C(N)C(=O)NC(Cc1ccccc1)C(=O)N1CC(OCc2ccccc2)CC1C(=O)NCCCN (centres unmarked) [Example 176]
2%	0%	7%	0%					NCCCNC(=O)C1CC(OCc2ccccc2)CN1C(=O)C(Cc1ccccc1)NC(=O)C1CCC(=O)N1C(=O)OCc1ccccc1 (centres unmarked) [Example 177]
33%	0%	0%	0%					CCCCCCC(=O)NC(COCc1ccccc1)C(=O)NC(Cc1ccc2ccccc2c1)C(=O)N1CC2CC(Oc3ccc4ccccc4c3)CN2C(=O)C1CCCCN (centres unmarked) [Example 178]
				0%	0%	0%	0%	[2H]N[C@@H](Cc1cnc[nH]1)C(=O)N[C@@H](Cc1ccccc1)C(=O)N1CC2C[C@H](Oc3ccc4ccccc4c3)CN2C(=O)[C@@H]1CCCCN (some centres unmarked) [Example 179]
